Measurements published in US20160262894A1, “TISSUE REPAIR DEVICES AND SCAFFOLDS” (priority 2013, published 2016).

Assays:
[1] = system: adenosine A2A knockout (A2AKO) mice; test: in vivo bone formation by MicroCT in adenosine A2A knockout (A2AKO) mice, coated βTCP-HA scaffolds; details: 4 weeks post-surgery, CGS21680 10 mM
Excerpt: The remaining scaffold is shown in blue, and the new bone formation is shown in red.

3 mm calvaria defect [2] = details: application at the site of the bone defect
Excerpt: In vivo testing in mice: The 3-D scaffolds will be evaluated in a murine model using a 3 mm calvaria defect model.

3 mm calvaria defect [3] = details: murine model of calvarial bone regeneration; background statement; cited from earlier work

Structure (SMILES)	resorption of scaffolds ([1]; compared with dipyridamole-coated scaffolds)	new bone growth at the site of a bone defect (3 mm calvaria defect [2])	bone regeneration (3 mm calvaria defect [3])	new bone formation ([1]; collagen-coated βTCP-HA scaffolds, Dipyridamole 100 μM)
CCNC(=O)[C@H]1O[C@@H](n2cnc3c(N)nc(NCCc4ccc(CCC(=O)O)cc4)nc32)[C@H](O)[C@@H]1O [CGS21680]	greater	–	–	–
OCCN(CCO)c1nc(N2CCCCC2)c2nc(N(CCO)CCO)nc(N3CCCCC3)c2n1 [dipyridamole]	–	promotes new bone growth	exponentially stimulates bone regeneration	did not differ from that induced in saline- or CGS21680-coated surfaces
